No end group written: not given here.
Legend:
[1] = tested on: neonatal rat cardiomyocytes; assay: Cardiomyocyte encapsulation in chitosan hydrogels, live/dead staining after 6 days; assay type: cell-based; conditions: peptide conjugated to Az-chitosan hydrogel, in vitro cultivation
Method: The lyophilized form of the peptide-modified Az-chitosan (Az-chitosan-QHREDGS or Az-chitosan-RGDS) was dissolved in sterile 0.9% PBS at 12 mg/mL. Cardiomyocytes (2.5×10^6) were suspended in 15 μL 30% FBS-containing culture medium for 15 min. on ice. These cells were further suspended in 35 μL of the hydrogel. This mixture was placed on a 12 mm diameter glass coverslip, which was placed on a UV lamp (UVP, 365 nm, 1 mW/cm^2 at 3″ distance, 115 V, 60 Hz, 0.16 Amp) and exposed to UV light for 5 min. The samples were then transferred to a 12 well plate and supplemented with 2 mL of warm cardiomyocyte culture media.
Live/dead staining was performed using 5-carboxyfluorescein diacetate acetoxymethly ester, which stains live cells green, and propidium iodide, which stains dead cells red according to the manufacturer's instruction (Invitrogen). Three sets of surfaces were analyzed for each sample type.

[2] = tested on: neonatal rat CMs (heart cells); assay: Preliminary 3D cell encapsulation studies in hydrogels; assay type: cell-based, rat (Sprague-Dawley); conditions: encapsulated, 1 to 4 days of 3D culture
Method: The lyophilized form of the peptide-modified Az-chitosan was dissolved in sterile 0.9% saline at 12 mg/mL. CMs (2.5×10^6) were suspended in 15 μL of CM culture media with 30% serum for 15 minutes on ice. These cells were then suspended in 35 μL of the hydrogel and crosslinked in the transwell inserts of the 96 well plates. The cells were cultivated in the CM culture medium with 10% FBS for up to 4 days.

[3] = tested on: neonatal rat CMs (heart cells); assay: Heart cell attachment on peptide-modified Az-chitosan coated coverslips (brightfield cell counts); assay type: cell-based, rat (Sprague-Dawley); conditions: coated glass coverslips, 1, 3 and 5 days of incubation, FIG. 1
Method: Neonatal (1 to 2 day-old) Sprague-Dawley rats were euthanized according to the procedure approved by the University of Toronto Committee on Animal Care. […] The supernatant from 5 collagenase digests of the tissues was collected and centrifuged at 750 rpm (94 g) for 4 min, resuspended in culture medium and pre-plated into T75 flasks (Falcon) for 1 hour to separate the non-adherent cells (enriched CMs) from the adherent cells (non-myocytes). The enriched CMs were used in the studies. The CM culture medium consisted of Dulbecco's Modified Eagle Medium (DMEM) with 4.5 g/L glucose, 4 mM L-glutamine, 10% certified fetal bovine serum (FBS), 100 U/mL penicillin, 100 μg/mL streptomycin, and 10 mM 4-2-hydroxyethyl-1-piperazineethanesulfonic acid buffer (HEPES, Gibco/Invitrogen).
The surfaces used for microscopy analysis were created on circular 12 mm diameter glass coverslips (VWR). These were plasma treated (WS-400BZ-6NPP/Lite, Laurell Technologies) for 30 s. […]
The day before cells were ready to be seeded, the surfaces in the 12-well plates were sterilized by germicidal UV illumination overnight. […]
Brightfield images were taken with 10× magnification of surfaces with cells (N=3) to visualize the morphology and cell attachment (IX81, Olympus). […] The number of cells was then counted using the cell counting plug-in on ImageJ (NIH version 1.36b).

human iPS cells 0901B = assay: iPS colony formation / cloning efficiency after complete dissociation at clonal density; assay type: cell-based; conditions: 50 μM, trypsinized, clonal density, one week, FIG. 13B
Method: (§1) The human iPS cells (BJ1D and 0901B) were obtained from the Ontario iPSC Facility and used following the hiPS cell research guidelines of the University of Toronto as described by Hotta et al. Nat. Protoc. 4, 1828-1844 (2009)), unless specified otherwise. Cells were cultured on a feeder layer of MEF cells (Mount Sinai Hospital Toronto, inactivated with 10 μg/ml mitomycin C and seeded at 1.8×10^5 per 3.5 cm dish). For single cell cultures, hiPS cell colonies were dissociated in 0.25% Trypsin-EDTA (Invitrogen) for 5 min, followed by trituration with a pipette. To ensure a single-cell suspension, the dissociated cells were passed through a 40 μm cell strainer (BD Falcon) and seeded onto MEF plates at 10 cells/ml, 10 cm plates. Cells were allowed to grow for 7 days and the total number of colonies was counted. In the treated groups, QHREDGS (Biomatik) or DGQESHR (Biomatik) dissolved in PBS (Lonza), were added at the reported concentrations to culture media at the onset of the first treatment passage and replenished with each media change. Media was changed by 100% every day. Peptides and controls were included during dissociation and passaging. Cells were analyzed after 5 passages in continuous treatment with 50 μM QHREDGS, 50 μM DGQESHR, or PBS, unless specified otherwise.
(§2) iPS cells, BJ1D or 0901B were treated with 50 μM of QHREDGS peptide, or 50 μM DGQESHR scrambled peptide in PBS with a PBS treated control for five passages as a preparation for passage by trypsin. Cells were trypsinized and plated at a clonal density of 10 cells/ml for one week and the number of colonies were counted.
(§3) After 5 passages in pre-treatment with 50 μM QHREDGS, or controls and complete dissociation (trypsinized), human iPS cells, BJ1D or 0901B cells, were plated on a mouse embryonic fibroblast (MEF) feeder layer at low density (100 cells/plate, 10 cm plate) in maintenance medium containing 50 μM QHREDGS, PBS, or 50 μM DGQESHR scrambled peptide. After one-week in culture, untreated or DGQESHR (scrambled peptide) treated groups generated few colonies, whereas QHREDGS treated groups for both BJ1D or 0901B cells produced many large colonies (˜15 times more than the controls) (see FIG. 13A/B, respectively). The colonies were positive for Oct4, a marker for the undifferentiated state. The cloning efficiency, based on ratio of Oct4+ colonies formed per initially seeded human iPS cells, was 27+/−7.1% and 2.5+/−0.6% for BJ1D and 48+/−9.4% and 22.3+/−1.9 for 0901B in the presence and absence of QHREDGS, respectively. […] Thus, treatment with QHREDGS supports single-cell culture of human iPS cells through the promotion of colony formation.

human iPS cells BJ1D = assay: as above; assay type: cell-based; conditions: 50 μM, trypsinized, clonal density, one week, FIG. 13A
Method: as §1, §2, §3

[4] = tested on: Rat neonatal cardiomyocytes; assay: ATP assay (CellTiter-Glo) in serum-starved cardiomyocytes; assay type: cell-based; conditions: 1 d
Method: Rat neonatal cardiomyocytes were incubated with PBS (control), 500 μM QHREDGS, scrambled QHREDGS peptide, GRGDSP peptide or 400 nM ang 1 or ang2 in DMEM/0.5% BSA/cytosine-β-D-arabinofuranoside (37° C., 5% CO2, 1 d). ATP levels were quantified using the CellTiter-Glo Luminescent Assay (Promega) as per manufacturer's instructions (N=6/group). Luminescence was measured using a Wallac 1420 microplate reader.

[5] = tested on: Rat neonatal cardiomyocytes; assay: Hydrogen peroxide treatment, Trypan blue viability (monolayer); assay type: cell-based; conditions: 200 nM ang 1 1.5 hr, 100 μM H2O2 10 min, FIG. 5A
Method: Rat neonatal cardiomyocytes were incubated for 1.5 hr with 500 μM QHREDGS, scrambled (scram) QHREDGS peptide (DGQESHR), or PBS control (PBS); 200 nM ang 1 or its matched buffer control [0.1% bovine serum albumin (BSA) in PBS] in the culture medium. The culture medium consisted of Dulbecco's Modified Eagle's Medium (DMEM) with 0.5% BSA and cytosine-β-D-arabinofuranoside (anti-proliferative). Reactive oxygen species were increased by addition of 100 μM H2O2 for 10 min (37° C., 5% CO2) (N=6/group). Cell viability was measured using a Trypan blue stain. Trypan blue dye is impermeable to viable cells, but enters dead/damaged cells with impaired membrane integrity, staining cells blue.

QHREDGS (angiopoietin 1 peptide)
syncytium formation of encapsulated cardiomyocytes [1]: formation of a dense syncytium

Az-chitosan-DGQESHR: scrambled QHREDGS peptide conjugated to Az-chitosan (also: conjugated to Az-chitosan, site not given here) [reference compound]
heart cell survival and elongation in 3D hydrogel [2]: a large number of dead round cells
cell adhesion / cell attachment to coated surface [3]: did not have the same attachment results

DGQESHR [scrambled QHREDGS peptide control, reference compound]
number of colonies (human iPS cells 0901B): few colonies
number of colonies (human iPS cells BJ1D): few colonies
cardiac myocyte ATP levels ([4]; 500 μM peptide): no such effect

GRGDSP [RGD-based peptides, reference compound]
cardiac myocyte ATP levels ([4]; 500 μM peptide): no such effect

B1: Angiopoietin 1 (protein, UniProt Q15389 1-498, looked up)
chain: MTVFLSFAFLAAILTHIGCSNQRRSPENSGRRYNRIQHGQCAYTFILPEHDGNCRESTTDQYNTNALQRDAPHVEPDFSSQKLQHLEHVMENYTQWLQKLENYIVENMKSEMAQIQQNAVQNHTATMLEIGTSLLSQTAEQTRKLTDVETQVLNQTSRLEIQLLENSLSTYKLEKQLLQQTNEILKIHEKNSLLEHKILEMEGKHKEELDTLKEEKENLQGLVTRQTYIIQELEKQLNRATTNNSVLQKQQLELMDTVHNLVNLCTKEGVLLKGGKREEEKPFRDCADVYQAGFNKSGIYTIYINNMPEPKKVFCNMDVNGGGWTVIQHREDGSLDFQRGWKEYKMGFGNPSGEYWLGNEFIFAITSQRQYMLRIELMDWEGNRAYSQYDRFHIGNEKQNYRLYLKGHTGTAGKQSSLILHGADFSTKDADNDNCMCKCALMLTGGWWFDACGPSNLNGMFYTAGQNHGKLNGIKWHYFKGPSYSLRSTTMMIRPLDF
modifications: full-length
notes: full length parent protein of QHREDGS
cardiomyocyte viability after exposure to H2O2 [5]: maintain cardiomyocyte viability
cardiac myocyte ATP levels ([4]; 400 nM protein): substantially increased

B2: ang2: ang2 protein comparator in the ATP assay (protein, UniProt O15123 19-496, looked up)
Angiopoietin-2: YNNFRKSMDSIGKKQYQVQHGSCSYTFLLPEMDNCRSSSSPYVSNAVQRDAPLEYDDSVQRLQVLENIMENNTQWLMKLENYIQDNMKKEMVEIQQNAVQNQTAVMIEIGTNLLNQTAEQTRKLTDVEAQVLNQTTRLELQLLEHSLSTNKLEKQILDQTSEINKLQDKNSFLEKKVLAMEDKHIIQLQSIKEEKDQLQVLVSKQNSIIEELEKKIVTATVNNSVLQKQQHDLMETVNNLLTMMSTSNSAKDPTVAKEEQISFRDCAEVFKSGHTTNGIYTLTFPNSTEEIKAYCDMEAGGGGWTIIQRREDGSVDFQRTWKEYKVGFGNPSGEYWLGNEFVSQLTNQQRYVLKIHLKDWEGNEAYSLYEHFYLSSEELNYRIHLKGLTGTAGKISSISQPGNDFSTKDGDNDKCICKCSQMLTGGWWFDACGPSNLNGMYYPQRQNTNKFNGIKWYYWKGSGYSLKATTMMIRPADF
cardiac myocyte ATP levels ([4]; 400 nM protein): no such effect
